Experimental findings from PubChem BioAssay (NCI) are described below.

Some test systems named below: KM20L2 colon; SNB-78 CNS; HOP-18 NSCLC; DMS 273 small cell lung; M19-MEL melanoma; RXF-631 renal; LXFL 529 NSCLC; XF 498 CNS; MDA-N.
What all share (test): NCI anticancer screen, dose series, 48 h

Several values for one entry are separate records, joined by “and”; a condition that tells them apart may be missing. Equal entries are not always repeated.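 Values below derive from 48-hour exposures of cells grown in 96-well plates, with endpoints linearly interpolated between the two concentrations bracketing the appropriate inhibition level. Here, GI50 denotes the concentration required for 50% inhibition of growth. TGI is the concentration that stops growth completely.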

As to `C/C(=N\NC(N)=O)C(CN1CCCCC1)C(c1ccccc1)c1c(O)c2ccccc2oc1=O` (stereo not drawn), the TGI with KM20L2 colon, in the test on SNB-78 CNS, in the test with HOP-18 NSCLC, in the test with DMS 273 small cell lung, in the test with M19-MEL melanoma and with RXF-631 renal was above 100 µM each time. Further, the TGI in the test with LXFL 529 NSCLC was above 100 µM.

Consider `N/C(=N\NS(=O)(=O)c1ccccc1)Oc1ccc(Cl)cc1`, for which the TGI with KM20L2 colon, with SNB-78 CNS, in the test on XF 498 CNS, with HOP-18 NSCLC, in the test on DMS 273 small cell lung and with M19-MEL melanoma was above 100 µM throughout. In the test on LXFL 529 NSCLC, the TGI is above 100 µM.

Turning to `COc1cc([C@@H]2c3cc4c(cc3[C@@H](NC(=O)c3ccc(N)cc3)C3COC(=O)[C@@H]32)OCO4)cc(OC)c1O` (stereo partly drawn), the TGI in the test with KM20L2 colon was 9.57 µM; in the test with HOP-18 NSCLC, above 100 µM; in the test on DMS 273 small cell lung, 16.3 µM; with M19-MEL melanoma it was above 100 µM; in the test with LXFL 529 NSCLC, above 100 µM.

Consider `Nc1[nH]c(=O)ncc1F`, for which, in the test on MDA-N, the TGI is above 100 µM.

Consider `COC(=O)C1=C(OC)c2cc3c(cc2C(c2cc(OC)c(OC)c(OC)c2)C1C(=O)OC)OCO3` (stereo not drawn), for which the TGI in the test with KM20L2 colon, in the test on SNB-78 CNS, with XF 498 CNS, in the test on HOP-18 NSCLC, with DMS 273 small cell lung and with M19-MEL melanoma was above 100 µM each time. Besides, the TGI in the test on LXFL 529 NSCLC was above 100 µM.

As to `O=NC1c2cccc3cccc(c23)C1N=O` (stereo not drawn), the TGI in the test on MDA-N is 25.4 µM.

Turning to `Cn1cnc([N+](=O)[O-])c1Sc1ccccn1`, the TGI is above 100 µM with SNB-78 CNS; above 100 µM in the test on XF 498 CNS; 96.1 µM in the test on HOP-18 NSCLC; above 100 µM with DMS 273 small cell lung; above 100 µM in the test on M19-MEL melanoma; above 100 µM in the test on RXF-631 renal. In the test with LXFL 529 NSCLC, this compound gave a TGI above 100 µM.

Consider `C=CN1C(=O)OC(c2ccccc2)C1c1ccccc1` (stereo not drawn), for which the GI50 with KM20L2 colon, in the test with SNB-78 CNS, in the test on HOP-18 NSCLC, in the test with M19-MEL melanoma, in the test with RXF-631 renal and with LXFL 529 NSCLC was above 100 µM each time. Besides, the TGI with KM20L2 colon, in the test on SNB-78 CNS, in the test on HOP-18 NSCLC, in the test with DMS 273 small cell lung, in the test with M19-MEL melanoma and with RXF-631 renal was above 100 µM each time. Moreover, the TGI with LXFL 529 NSCLC is above 100 µM.

For the compound `Cc1cnc[nH]c1=O`, the TGI in the test on KM20L2 colon, with SNB-78 CNS, in the test with HOP-18 NSCLC, in the test on DMS 273 small cell lung, in the test with M19-MEL melanoma and in the test on RXF-631 renal was above 100 µM each time. Besides, the TGI with LXFL 529 NSCLC was above 100 µM.

Take `CCOc1ccc2[nH]c3c(C)c4cc[n+](C)cc4c(C)c3c2c1`: the TGI is 47.8 µM and > 96.8 µM in the test on KM20L2 colon; above 100 µM in the test on SNB-78 CNS; 33.6 µM and 49.2 µM in the test with HOP-18 NSCLC; 6.33 µM and 13.8 µM in the test on DMS 273 small cell lung; 2.27 µM and 4.23 µM in the test with M19-MEL melanoma; 1.54 µM and 3.6 µM in the test with LXFL 529 NSCLC. Further, the GI50 in the test on DMS 273 small cell lung is 0.651 µM and 1.33 µM; in the test on M19-MEL melanoma, 0.557 µM and 1.5 µM.

As to `CN(C)C[C@H]1CC[C@@H](CN(C)C)C1=O`, the TGI turned out to be 25.5 µM in the test with KM20L2 colon; 23.3 µM in the test with SNB-78 CNS; 15.1 µM in the test on XF 498 CNS; 14.8 µM in the test with HOP-18 NSCLC; 16.7 µM with DMS 273 small cell lung; 16.1 µM in the test on MDA-N. Further, the TGI was determined as 17 µM in the test with M19-MEL melanoma and 12.5 µM in the test on LXFL 529 NSCLC.

Take `CCOC(=O)C1N(S(=O)(=O)c2ccc(C)cc2)CCC12c1ccccc1N(C(C)=O)C2C(/C=C/C(=O)OC)=C/C(=O)OC` (stereo not drawn): the TGI in the test with KM20L2 colon, in the test with SNB-78 CNS, in the test on XF 498 CNS, in the test on DMS 273 small cell lung, with M19-MEL melanoma and in the test on LXFL 529 NSCLC was above 100 µM in each case.

Turning to `C[Si](C)(C)/C=C/CCC(C=O)(CCCl)c1ccccc1` (stereo not drawn), the TGI was above 100 µM with KM20L2 colon; 78.9 µM with SNB-78 CNS; 36 µM in the test with XF 498 CNS; 80 µM with HOP-18 NSCLC; 55.2 µM with DMS 273 small cell lung; above 100 µM in the test on M19-MEL melanoma. For the same compound, the TGI in the test on LXFL 529 NSCLC was above 100 µM.

`O=c1[nH]cc(CS(=O)(=O)Cc2c[nH]c(=O)[nH]c2=O)c(=O)[nH]1`: the TGI in the test with MDA-N was above 100 µM.

For the compound `O=C(CC(=O)N1N=C(c2ccccc2)C(N=Nc2ccc(C(=O)O)cc2)C1=O)Nc1ccc(F)cc1` (stereo not drawn), the TGI was above 100 µM in the test on KM20L2 colon; above 100 µM in the test with SNB-78 CNS; 93.4 µM in the test with XF 498 CNS; 78.7 µM with DMS 273 small cell lung; above 100 µM with M19-MEL melanoma; above 100 µM in the test on RXF-631 renal. In the test on LXFL 529 NSCLC, this compound had a TGI above 100 µM.

Take `O=C(c1ccccc1)C1C(C(=O)c2ccccc2)N1Cc1ccccc1` (stereo not drawn): the TGI in the test on MDA-N is 37.4 µM.

For the compound `CN(C(=O)C1(C(=O)C=[N+]=[N-])CC1)c1ccccc1`, in the test on MDA-N, the TGI was above 100 µM.

Turning to `COC(=O)/C=C/C(=O)C1C(C(=O)OC)C2(C(=O)OC)CCC1(C(=O)OC)N2` (stereo not drawn), the TGI in the test with SNB-78 CNS, in the test with HOP-18 NSCLC and in the test with M19-MEL melanoma was above 100 µM in each case.

Consider `CC1(O)C=CC2CCC1C2O` (stereo not drawn), for which the TGI with KM20L2 colon, in the test on SNB-78 CNS, in the test on XF 498 CNS, in the test with HOP-18 NSCLC, in the test with DMS 273 small cell lung and in the test on M19-MEL melanoma was above 100 µM in each case. Also, the TGI in the test with LXFL 529 NSCLC is above 100 µM.

As to `COC(=O)C[CH](C(=O)OC)[Ge]([CH3])([CH3])[S]c1ccccc1` (stereo not drawn), the GI50 is 26.7 µM in the test with KM20L2 colon; 22.1 µM in the test on SNB-78 CNS; above 100 µM in the test with HOP-18 NSCLC; 12.6 µM in the test on DMS 273 small cell lung; 16.9 µM in the test on M19-MEL melanoma; 17.5 µM in the test with LXFL 529 NSCLC. Further, the TGI with KM20L2 colon was 67.9 µM; in the test on SNB-78 CNS, 96.7 µM; with HOP-18 NSCLC, above 100 µM; in the test with DMS 273 small cell lung it was 29.9 µM; in the test on M19-MEL melanoma, 54.7 µM; in the test with LXFL 529 NSCLC, 36 µM.

As for `CC[C@@]1(O)C(=O)NCc2c1cc1n(c2=O)Cc2cc3ccccc3nc2-1`, in the test on MDA-N, the GI50 is 12.4 µM and the TGI is above 100 µM.
